Source: patent publication US10376481B2, “Compounds and methods for inhibiting NHE-mediated antiport in the treatment of disorders associated with fluid retention or salt overload and gastrointestinal tract disorders” (ARDELYX, INC, priority 2012, dated 2019)

What was measured:
[1] = biological target: T1, human NHE3 (Homo sapiens, UniProt P48764); assay: Cell-based assay of NHE-3 activity (human NHE3 inhibition assay); design: expressed in transfected cells; host or cells: Opossum kidney (OK) cells (ATCC), electroporated; conditions: OK cells with human NHE-3 gene, BCECF pH recovery, 0-30 μM test compound; read-out: Human NHE3 pIC50 (converted)
T1 sequence (P48764 26-834): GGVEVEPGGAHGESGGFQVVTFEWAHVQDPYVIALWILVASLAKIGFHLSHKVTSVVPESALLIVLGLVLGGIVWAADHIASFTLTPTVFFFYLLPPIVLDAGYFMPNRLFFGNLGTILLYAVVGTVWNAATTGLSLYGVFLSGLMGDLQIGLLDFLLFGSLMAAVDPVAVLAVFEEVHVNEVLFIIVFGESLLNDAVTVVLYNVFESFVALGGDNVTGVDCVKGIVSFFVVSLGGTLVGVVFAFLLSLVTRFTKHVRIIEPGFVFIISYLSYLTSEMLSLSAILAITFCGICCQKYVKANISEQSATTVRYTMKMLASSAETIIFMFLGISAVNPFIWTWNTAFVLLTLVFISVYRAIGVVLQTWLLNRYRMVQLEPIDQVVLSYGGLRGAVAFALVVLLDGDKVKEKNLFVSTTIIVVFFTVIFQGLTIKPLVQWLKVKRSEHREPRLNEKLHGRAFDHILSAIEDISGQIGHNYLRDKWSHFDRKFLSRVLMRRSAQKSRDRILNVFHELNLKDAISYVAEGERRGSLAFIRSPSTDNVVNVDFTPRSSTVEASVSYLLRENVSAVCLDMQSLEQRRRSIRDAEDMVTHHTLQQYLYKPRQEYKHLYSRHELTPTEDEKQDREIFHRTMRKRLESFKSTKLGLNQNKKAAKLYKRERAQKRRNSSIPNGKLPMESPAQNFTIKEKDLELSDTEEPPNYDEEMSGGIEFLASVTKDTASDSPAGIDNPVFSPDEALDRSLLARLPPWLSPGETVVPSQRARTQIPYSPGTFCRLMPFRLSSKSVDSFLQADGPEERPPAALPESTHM
Method in brief: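 Opossum kidney cells electroporated with rat or human NHE-3, loaded with 5 μM BCECF-AM in NH4Cl-HEPES pH 7.4 for 30 min at RT, then acidified 10 min in Na+-free choline HEPES. Na+-dependent pH recovery rates from BCECF fluorescence, averaged over ≥2 replicates, gave pIC50.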

[2] = biological target: T1, human NHE3; assay: Cell-based assay of NHE-3 activity (pre-incubation inhibition), human; conditions: for IC50: PS120 fibroblasts stably expressing human NHE3, 10 min pre-incubation with 0-30 μM test compound, read-out: pIC50 (human Preincubation assay) (converted); for % inhibition (human Preincubation assay): PS120 fibroblasts stably expressing human NHE3, pre-incubation with test compound
Description: Rat and human NHE-3-mediated Na^+-dependent H^+ antiport was measured using a modification of the pH sensitive dye method originally reported by Paradiso (Proc. Natl. Acad. Sci. USA. (1984) 81(23): 7436-7440, which is hereby incorporated by reference in its entirety). PS120 fibroblasts stably expressing human NHE3 were obtained from Mark Donowitz (Baltimore, Md.). Opossum kidney (OK) cells were obtained from the ATCC and propagated per their instructions. The rat NHE-3 gene (GenBank M85300) was introduced into OK cells via electroporation, and cells were seeded into 96 well plates and grown overnight. Medium was aspirated from the wells then incubated for 30 min at 37° C. with NH4Cl-HEPES buffer (20 mM NH4Cl, 80 mM NaCl, 50 mM HEPES, 5 mM KCl, 2 mM CaCl2, 1 mM MgCl2, pH 7.4) containing 5 μM BCECF-AM. Cells were washed once with Ammonium free, Nat-free HEPES (100 mM choline, 50 mM HEPES, 10 mM glucose, 5 mM KCl, 2 mM CaCl2, 1 mM MgCl2, pH 7.4) and incubated in the same buffer for 10 minutes at room temperature to lower intracellular pH with 0-30 μM test compound. […] Changes in intracellular pH were monitored using a FLIPR Tetra® (Molecular Devices, Sunnyvale, Calif.) by excitation at λex 439 to 505 nm, and measuring BCECF fluorescence at λem 538 nm. The initial rate of the fluorescence ratio change was used as a measure of NHE-mediated Na^+/H^+ activity, and reported as the change in fluorescence ratio per minute. Initial rates were plotted as the average 2 or more replicates, and pIC50 values were estimated using GraphPad Prism.

[3] = Fecal recovery; assay type: in vivo, Sprague Dawley rats; conditions: male, Sprague-Dawley, faeces; rat, oral gavage 1 mg/kg, collection time 48 h
Description: Three male Sprague Dawley rats were administered 1 mg/kg test compound by oral gavage. Feces were collected from study animals from 0-48 or 0-72 hours after dosing, dried by lyophilization, and homogenized. Replicate aliquots of 40-60 mg each were subjected to extraction/protein precipitation with 7:1 acetonitrile:water and centrifuged. Supernatants were diluted 1:10 in 50:50 acetonitrile:water prior to analysis by LC-MS/MS. Compound concentrations, determined by interpolation from a standard calibration curve prepared in blank feces matrix, were converted to the percentage of dosed material recovered by taking into account the total collected fecal matter. The percent recovery for each rat was reported as the mean of the calculations from replicate samples. The overall percent recovery (Fecal Recovery [%]) was reported as the mean percent recovery from three rats. Accurate quality control sample recoveries were confirmed in each run and extraction efficiency was periodically verified.

[4] = tested on: apical acid secretion, human duodenum monolayer culture; assay: Sustained inhibition of apical acid secretion in human organoid monolayer cell cultures (duodenum); assay type: cell-based; conditions: 1 μM apical dosing, inhibition of apical acid secretion vs DMSO

IC50 [1] | IC50 [2] | % inhibition (human Preincubation assay) [2] | dose excreted [3] | SMILES | % inhibition (duodenum) [4]
< 100 nM | < 100 nM | C (>70%) | 66.8% | O=C(NCCCCNC(=O)NCCOCCOCCNS(=O)(=O)c1ccc(O[C@H]2c3cc(Cl)cc(Cl)c3C[C@@H]2N2CC[C@@H](O)C2)cc1)NCCOCCOCCNS(=O)(=O)c1ccc(O[C@H]2c3cc(Cl)cc(Cl)c3C[C@@H]2N2CC[C@@H](O)C2)cc1 [Example 30] | –
< 100 nM | < 100 nM | C (>70%) | 82.1% | CN(C)[C@H]1Cc2c(Cl)cc(Cl)cc2[C@@H]1Oc1ccc(S(=O)(=O)NCCOCCOCCNC(=O)CCC(C)(N)CCC(=O)NCCOCCOCCNS(=O)(=O)c2ccc(O[C@H]3c4cc(Cl)cc(Cl)c4C[C@@H]3N(C)C)cc2)cc1 [Example 11, 4-amino-N1,N7-bis(2-(2-(2-(4-((1S,2S)-4,6-dichloro-2-(dimethylamino)-2,3-dihydro-1H-inden-1-yloxy)phenylsulfonamido)ethoxy)ethoxy)ethyl)-4-methylheptanediamide] | –

Second part, the compound before the results:

SMILES | IC50 [1] | IC50 [2] | % inhibition (human Preincubation assay) [2] | dose excreted [3] | % inhibition (duodenum) [4]
N[C@@H]1CCCN([C@H]2Cc3c(Cl)cc(Cl)cc3[C@@H]2Oc2ccc(S(=O)(=O)NCCOCCOCCNC(=O)NCCCCNC(=O)NCCOCCOCCNS(=O)(=O)c3ccc(O[C@H]4c5cc(Cl)cc(Cl)c5C[C@@H]4N4CCC[C@@H](N)C4)cc3)cc2)C1 [Example 3, (S,S,R)—N,N′-(10,17-dioxo-3,6,21,24-tetraoxa-9,11,16,18-tetraazahexacosane-1,26-diyl)bis(4-((1S,2S)-2-((R)-3-aminopiperidin-1-yl)-4,6-dichloro-2,3-dihydro-1H-inden-1-yloxy)benzenesulfonamide)] | < 100 nM | < 100 nM | C (>70%) | 69.2% | –
CN(C)[C@H]1Cc2c(Cl)cc(Cl)cc2[C@@H]1Oc1ccc(S(=O)(=O)NCCOCCOCCNC(=O)NCCCCNC(=O)NCCOCCOCCNS(=O)(=O)c2ccc(O[C@H]3c4cc(Cl)cc(Cl)c4C[C@@H]3N(C)C)cc2)cc1 [Example 1, (S,S)—N,N′-(10,17-dioxo-3,6,21,24-tetraoxa-9,11,16,18-tetraazahexacosane-1,26-diyl)bis(4-((1S,2S)-4,6-dichloro-2-(dimethylamino)-2,3-dihydro-1H-inden-1-yloxy)benzenesulfonamide)] | < 100 nM | < 100 nM | C (>70%) | 87.7% | C (>70%)
CN(C)[C@H]1Cc2c(Cl)cc(Cl)cc2[C@@H]1Oc1ccc(S(=O)(=O)NCCOCCOCCNC(=O)COCC(=O)NCCOCCOCCNS(=O)(=O)c2ccc(O[C@H]3c4cc(Cl)cc(Cl)c4C[C@@H]3N(C)C)cc2)cc1 [Example 9, 2,2′-oxybis(N-(2-(2-(2-(4-((1S,2S)-4,6-dichloro-2-(dimethylamino)-2,3-dihydro-1H-inden-1-yloxy)phenylsulfonamido)ethoxy)ethoxy)ethyl)acetamide)] | < 100 nM | < 100 nM | C (>70%) | 65.7% | –
